Source: patent US10271540B2, “Medical fluid, a method of treatment and use of the fluid” (XVIVO PERFUSION AB, priority 2010, dated 2019)

Tests used:
alpha-1 = assay: potency of alpha-1-agonist relative to noradrenaline
Description: For example, phenylephrine is an alpha-1-agonist and may replace noradrenaline.

[1] = circulating in blood, metabolized by the liver; cited from earlier work

SMILES | times less potent than noradrenaline (alpha-1) | half-life [1]
CNC[C@H](O)c1cccc(O)c1 [phenylephrine] | about 5 times | 
NC[C@H](O)c1ccc(O)c(O)c1 [noradrenaline] |  | approximately a few minutes
CNCC(O)c1ccc(O)c(O)c1 (stereo not drawn) [adrenaline] |  | approximately a few minutes
